The subject of assay [1] is NF-kB reporter in Jurkat cells. The assay can be described thus: NF-kB reporter assay in Jurkat cells stimulated with aCD3/aCD28/PMA. The class given is cell-based. The conditions noted are these: read-out: NF-kB Reporter Assay IC50. Summed up:
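Jurkat cells (25,000/well, serum-free RPMI) were pre-incubated 1 h at 37° C with serially diluted compound, then stimulated 4 h with aCD3/aCD28/PMA at final […]. NF-kB reporter activity was read by One-Glo luminescence; IC50 values reported.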
For orientation: A reporter such as luciferase makes a cellular process visible.

A further assay deals with Avi-tagged FL MALT-1 (Homo sapiens (Human), UniProt Q9UDY8). Put plainly: MALT-1 Fluorogenic Peptide Cleavage Assay (MALT1 inhibition assay). To be noted: Ac-LRSR-AMC peptide substrate, 30 min pre-incubation, 90 min reaction at room temperature. It counts as biochemical. The essentials:
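Full-length Avi-tagged human MALT-1 (40 nM working stock) pre-incubated 30 min at RT with compound in 25 mM HEPES pH 6.89, 660 mM sodium citrate, 1 mM TCEP, […], 0.05% CHAPS, 2% DMSO. Ac-LRSR-AMC added at Km (50 μM working stock) or 10×Km (280 μM working stock); 90 min at RT, AMC fluorescence (ex 342/em 441 nm), IC50 from % inhibition curves.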

Where [2] appears, read: Jurkat cells, 1 hr compound pre-incubation, aCD3/aCD28/PMA stimulation 4 hr, One-Glo readout.
[3] abbreviates: Homo sapiens, Jurkat cells, 1 hr compound pre-incubation, aCD3/aCD28/PMA stimulation 4 hr, One-Glo readout.

pIC50: −log10 of the molar value. Read-outs that look alike come from different tables or passages of the source.

Chain of Avi-tagged FL MALT-1 (Q9UDY8 whole entry): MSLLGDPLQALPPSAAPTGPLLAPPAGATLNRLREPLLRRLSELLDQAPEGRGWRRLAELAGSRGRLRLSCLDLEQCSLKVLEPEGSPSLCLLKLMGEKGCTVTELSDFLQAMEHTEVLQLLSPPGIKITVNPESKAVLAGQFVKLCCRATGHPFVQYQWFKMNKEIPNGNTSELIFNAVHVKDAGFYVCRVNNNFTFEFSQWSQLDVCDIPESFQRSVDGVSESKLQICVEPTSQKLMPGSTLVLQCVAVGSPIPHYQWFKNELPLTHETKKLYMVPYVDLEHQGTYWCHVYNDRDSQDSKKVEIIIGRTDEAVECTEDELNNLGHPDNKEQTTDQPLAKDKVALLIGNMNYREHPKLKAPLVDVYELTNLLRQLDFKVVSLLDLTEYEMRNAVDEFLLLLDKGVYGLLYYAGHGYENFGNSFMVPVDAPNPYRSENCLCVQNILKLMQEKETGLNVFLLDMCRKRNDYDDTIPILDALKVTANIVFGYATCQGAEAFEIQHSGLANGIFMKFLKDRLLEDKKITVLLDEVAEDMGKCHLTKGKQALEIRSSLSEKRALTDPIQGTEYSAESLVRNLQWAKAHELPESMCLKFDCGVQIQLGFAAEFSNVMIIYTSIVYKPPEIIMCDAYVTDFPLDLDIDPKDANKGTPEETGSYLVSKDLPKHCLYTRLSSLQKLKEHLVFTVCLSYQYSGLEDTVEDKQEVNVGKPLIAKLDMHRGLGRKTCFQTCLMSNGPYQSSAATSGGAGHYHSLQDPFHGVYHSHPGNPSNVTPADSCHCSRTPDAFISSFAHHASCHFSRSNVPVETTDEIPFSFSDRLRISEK

Turning to `COc1ncc2cnn(C)c2c1NS(=O)(=O)c1cnn(-c2cc(C(C)OC)ccn2)c1` (single isomer, unassigned) [Compound I-273, N-{6-methoxy-1-methylpyrazolo[4,3-c]pyridin-7-yl}-1-{4-[1-methoxyethyl]pyridin-2-yl}pyrazole-4-sulfonamide], the results for the pIC50 (in assay [1] (setting [2]); at Avi-tagged FL MALT-1) were more than 6.40 and not below 6.40, respectively.
With `COc1ccc2cnn(C)c2c1NS(=O)(=O)c1cnn(-c2cc(C(C)OC)ccn2)c1` (single isomer, unassigned) [Compound I-290, N-(6-methoxy-1-methyl-1H-indazol-7-yl)-1-(4-(1-methoxyethyl)pyridin-2-yl)-1H-pyrazole-4-sulfonamide], the values for the pIC50 (in assay [1] (setting [3]); on Avi-tagged FL MALT-1) were more than 6.40 and not below 6.40, respectively.
For `CC[C@@H](OC)c1ccnc(-n2cc(S(=O)(=O)Nc3cccc4cnn(C)c34)cn2)c1` [Compound I-298], the pIC50 in assay [1] (setting [3]) is more than 6.40; on Avi-tagged FL MALT-1, less than 5.60.
The like results for `COC1(C)CN(c2ccnc(-n3cc(S(=O)(=O)Nc4cccc5cnn(C)c45)cn3)c2)C1` [Compound I-446, 1-[4-(3-methoxy-3-methylazetidin-1-yl)pyridin-2-yl]-N-(1-methylindazol-7-yl)pyrazole-4-sulfonamide] were, in that order, more than 6.40 and less than 5.60.
On to `Cn1nc(F)c2cccc(NS(=O)(=O)c3cnn(-c4cc(C(C)(F)F)ccn4)c3)c21` [Compound I-139, 1-(4-(1,1-Difluoroethyl)Pyridin-2-yl)-N-(3-FLUORO-1-Methyl-1H-Indazol-7-yl)-1H-Pyrazole-4-Sulfonamide], for which the figures for the pIC50 (in assay [1] (setting [3]); against Avi-tagged FL MALT-1) were more than 6.40 and less than 5.60, respectively.
For the compound `COc1ccc2cn(C)nc2c1NS(=O)(=O)c1cnn(-c2ccnc(C(F)(F)F)c2)c1` [Compound I-50, N-(6-Methoxy-2-Methyl-2H-Indazol-7-yl)-1-(2-(Trifluoromethyl)Pyridin-4-yl)-1H-Pyrazole-4-Sulfonamide], the pIC50 was less than 5.60 in assay [1] (setting [3]) and 6.00 to 6.40 against Avi-tagged FL MALT-1.
The like results for `COc1ccc2cnn(C)c2c1NS(=O)(=O)c1cnn(-c2cc(N3CC4(CC4)C3)ccn2)c1` [Compound I-371, 1-(4-(5-azaspiro[2.3]hexan-5-yl)pyridin-2-yl)-N-(6-methoxy-1-methyl-1H-indazol-7-yl)-1H-pyrazole-4-sulfonamide] were, in that order, more than 6.40 and less than 5.60.
As to `COc1ccc2cnn(C)c2c1NS(=O)(=O)c1cnn(-c2cc(N3CC(C#N)C3)ccn2)c1` [Compound I-454], the pIC50 in assay [1] (setting [3]) is 6.00 to 6.40; at Avi-tagged FL MALT-1 it was less than 5.60.
Regarding `COc1ncc2cnn(C)c2c1NS(=O)(=O)c1cnn(-c2cc(N3CC[C@H](F)C3)ccn2)c1` [Compound I-426], the pIC50 in assay [1] (setting [3]) is more than 6.40; at Avi-tagged FL MALT-1, less than 5.60.
In the case of `COC[C@H](OC)c1ccnc(-n2cc(S(=O)(=O)Nc3cccc4cnn(C)c34)cn2)c1` [Compound I-342], the pIC50 in assay [1] (setting [3]) is 6.00 to 6.40; on Avi-tagged FL MALT-1 it was less than 5.60.
The like results for `C[C@@H]1CN(c2ccnc(-n3cc(S(=O)(=O)Nc4cccc5cnn(C)c45)cn3)c2)C(=O)N1C` [Compound I-347, (R)-1-(4-(3,4-dimethyl-2-oxoimidazolidin-1-yl)pyridin-2-yl)-N-(1-methyl-1H-indazol-7-yl)-1H-pyrazole-4-sulfonamide] were, in that order, more than 6.40 and less than 5.60.
For `Cc1n[nH]c2cccc(NS(=O)(=O)c3cnn(-c4cc(C5(O)COC5)ccn4)c3)c12` [Compound I-243], the figures for the pIC50 (in assay [1] (setting [2]); at Avi-tagged FL MALT-1) were 5.60 to 6.00 and less than 5.60, respectively.
As to `C[C@H]1CN(c2ccnc(-n3cc(S(=O)(=O)Nc4cccc5cnn(C)c45)cn3)c2)C(=O)O1` [Compound I-319], the pIC50 in assay [1] (setting [3]) is more than 6.40; against Avi-tagged FL MALT-1, less than 5.60.
As to `Cn1ncc2cccc(NS(=O)(=O)c3cnn(-c4cc(C5=CCOCC5)ccn4)c3)c21` [Compound I-119, 1-(4-(3,6-Dihydro-2H-Pyran-4-yl)Pyridin-2-yl)-N-(1-Methyl-1H-Indazol-7-yl)-1H-Pyrazole-4-Sulfonamide], the pIC50 is more than 6.40 in assay [1] (setting [3]) and less than 5.60 against Avi-tagged FL MALT-1.
For `Cn1ncc2cccc(NS(=O)(=O)c3cnn(-c4cc(C5(C#N)CC5)ccn4)c3)c21` [Compound I-469, 1-(4-(1-cyanocyclopropyl)pyridin-2-yl)-N-(1-methyl-1H-indazol-7-yl)-1H-pyrazole-4-sulfonamide], the pIC50 in assay [1] (Homo sapiens, Jurkat) was more than 6.40; against Avi-tagged FL MALT-1, less than 5.60.
For the compound `Cn1ncc2cccc(NS(=O)(=O)c3cnn(-c4cc([C@]5(F)CCOC5)ccn4)c3)c21` [Compound I-335], the pIC50 in assay [1] (setting [3]) was more than 6.40; against Avi-tagged FL MALT-1, less than 5.60.
With `CCC(CC)(OC)c1ccnc(-n2cc(S(=O)(=O)Nc3cccc4cnn(C)c34)cn2)c1` [Compound I-296], the pIC50 is more than 6.40 in assay [1] (setting [3]) and less than 5.60 against Avi-tagged FL MALT-1.
Take `CO[C@]1(c2ccnc(-n3cc(S(=O)(=O)Nc4cccc5cnn(C)c45)cn3)c2)CCOC1` [Compound I-306]: the pIC50 in assay [1] (setting [3]) was more than 6.40; at Avi-tagged FL MALT-1 it was less than 5.60.
For the compound `Cn1ncc2ccc(OC(F)(F)F)c(N(S(=O)(=O)c3cnn(-c4cc(C(F)(F)F)ccn4)c3)S(=O)(=O)c3cnn(-c4cc(C(F)(F)F)ccn4)c3)c21` [Compound I-337, N-[1-methyl-6-(trifluoromethoxy)indazol-7-yl]-1-[4-(trifluoromethyl)pyridin-2-yl]-N-{1-[4-(trifluoromethyl)pyridin-2-yl]pyrazol-4-ylsulfonyl}pyrazole-4-sulfonamide], the pIC50 (in assay [1] (setting [3]); against Avi-tagged FL MALT-1) was less than 5.60 each time.
With `Cn1ncc2cccc(NS(=O)(=O)c3cnn(-c4cc(C5(O)CCCC5)ccn4)c3)c21` [Compound I-247, 1-[4-(1-hydroxycyclopentyl)pyridin-2-yl]-N-(1-methylindazol-7-yl) pyrazole-4-sulfonamide], the negative logarithm of the IC50 (pIC50) in assay [1] (setting [3]) was more than 6.40; against Avi-tagged FL MALT-1 it was less than 5.60.
With `COc1ncc2cnn(C)c2c1NS(=O)(=O)c1cnn(-c2cc(N3CCC(C)(C)C3)ccn2)c1` [Compound I-425], the pIC50 in assay [1] (setting [3]) is more than 6.40; at Avi-tagged FL MALT-1, less than 5.60.
For the compound `Cn1ncc2cccc(NS(=O)(=O)c3cnn(-c4cc([C@]5(O)C[C@@H](C)C5)ccn4)c3)c21` [Compound I-271, 1-(4-((1s,3s)-1-hydroxy-3-methylcyclobutyl)pyridin-2-yl)-N-(1-methyl-1H-indazol-7-yl)-1H-pyrazole-4-sulfonamide], the results for the pIC50 (in assay [1] (setting [3]); against Avi-tagged FL MALT-1) were more than 6.40 and less than 5.60, respectively.
`Cn1ncc2cccc(NS(=O)(=O)c3cnn(-c4cc(N5CCCC5)ccn4)c3)c21` [Compound I-249, N-(1-methyl-1H-indazol-7-yl)-1-(4-(pyrrolidin-1-yl)pyridin-2-yl)-1H-pyrazole-4-sulfonamide]: the results for the pIC50 (in assay [1] (setting [3]); at Avi-tagged FL MALT-1) were more than 6.40 and less than 5.60, respectively.
For `COc1ccc2cnn(C)c2c1NS(=O)(=O)c1cnn(-c2cc(C3CC3)ccn2)c1` [Compound I-57, 1-(4-Cyclopropylpyridin-2-yl)-N-(6-Methoxy-1-Methyl-1H-Indazol-7-yl)-1H-Pyrazole-4-Sulfonamide], in that order: more than 6.40 and not below 6.40.
As for `C[C@H]1COC(=O)N1c1ccnc(-n2cc(S(=O)(=O)Nc3cccc4cnn(C)c34)cn2)c1` [Compound I-303], the pIC50 in assay [1] (setting [3]) is more than 6.40; on Avi-tagged FL MALT-1, less than 5.60.

The pIC50 is −log10 of the IC50, conventionally taken in molar units.
